Measured values published in patent US20230339851A1, “CXCR6 SULFONAMIDE COMPOUNDS” (CHEMOCENTRYX, INC., priority 2022, published 2023).

target: T1, human CXCR6 (Homo sapiens, UniProt O00574); experiment: Radioligand Binding Assay (125I-CXCL16 displacement); settings: L1.2 cells stably transfected with human CXCR6 cDNA, 0.1 nM 125I-CXCL16, 4° C., three-hour incubation; read-out: Potency (IC50)
T1 construct: expressed in transfected cells
How it was run: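 L1.2 cells stably expressing human CXCR6 incubated 3 h at 4 °C in HBSS/0.1% BSA with 0.1 nM 125I-CXCL16 and graded compound concentrations. Bound radioactivity collected by filtration and counted; IC50 from 3-parameter nonlinear regression.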

T1 sequence (O00574 whole entry): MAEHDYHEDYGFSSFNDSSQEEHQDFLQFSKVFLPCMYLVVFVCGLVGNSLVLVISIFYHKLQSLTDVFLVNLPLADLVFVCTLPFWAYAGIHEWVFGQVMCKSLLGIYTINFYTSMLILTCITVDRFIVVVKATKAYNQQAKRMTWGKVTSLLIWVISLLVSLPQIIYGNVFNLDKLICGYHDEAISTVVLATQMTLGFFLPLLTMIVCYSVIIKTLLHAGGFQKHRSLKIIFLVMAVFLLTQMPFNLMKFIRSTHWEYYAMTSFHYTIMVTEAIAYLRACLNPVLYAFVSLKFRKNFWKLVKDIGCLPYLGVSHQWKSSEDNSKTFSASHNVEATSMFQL

Row | SMILES | IC50 [nM]
1 | COc1cc(NC(=O)CC2CCCCC2)ccc1S(=O)(=O)Nc1cccc(C(F)(F)F)c1 [Example 1.343] | 750 to 2000
2 | COc1cc(NC(=O)CC2CCCCC2)ccc1S(=O)(=O)Nc1cccc(C(F)(F)F)c1 [Example 1.344] | ≤ 200
3 | CCOc1cc(NC(=O)[C@@H](O)C2CCCCC2)ccc1S(=O)(=O)Nc1cccc(OC(F)(F)F)c1 [Example 1.345] | ≤ 200
4 | Cc1cc(NC(=O)c2ccns2)ccc1S(=O)(=O)Nc1cccc(C(F)(F)F)c1 [Example 1.346] | ≤ 200
5 | COc1cc(NC(=O)[C@@H]2CCC[C@@H]2N)ccc1S(=O)(=O)Nc1cccc(C(F)(F)F)c1 [Example 1.347] | 2000 to 20000
6 | COc1cccc(NS(=O)(=O)c2ccc(NC(=O)c3ccnn3C)cc2OC)c1 [Example 1.348] | 750 to 2000
7 | CCOc1cc(NC(=O)[C@@H](NC(C)=O)C(C)CC)ccc1S(=O)(=O)Nc1cccc(OC(F)(F)F)c1 (some centres unmarked) [Example 1.349] | ≤ 200
8 | CCOc1cc(NC(=O)[C@@H](CO)c2ccccc2)ccc1S(=O)(=O)Nc1cccc(Cl)c1C(F)(F)F [Example 1.350] | 2000 to 20000
9 | Cn1nccc1C(=O)Nc1ccc(S(=O)(=O)Nc2cccc(C(F)(F)F)c2)c(Br)c1 [Example 1.351] | 200 to 750
10 | C=C(C)CC(CO)C(=O)Nc1ccc(S(=O)(=O)Nc2cccc(OC(F)(F)F)c2)c(OCC)c1 (centres unmarked) [Example 1.352] | ≤ 200
11 | CCOc1cc(NC(=O)[C@@H](CO)C(C)C)ccc1S(=O)(=O)Nc1cccc(C(C)(C)O)c1 [Example 1.353] | 2000 to 20000
12 | COc1cc(S(=O)(=O)Nc2cccc(C(F)(F)F)c2)c(C)cc1NC(C)=O [Example 1.354] | 2000 to 20000
13 | CCOc1cc(NC(=O)C2CCCCCC2)ccc1S(=O)(=O)Nc1cccc(OC(F)(F)F)c1 [Example 1.355] | 750 to 2000
14 | CCOc1cc(NC(=O)[C@@H](CO)C(C)C)ccc1S(=O)(=O)Nc1ccc(C)c(CC)c1 [Example 1.356] | ≤ 200
15 | CCOc1cc(NC(=O)c2cccc3cn[nH]c23)ccc1S(=O)(=O)Nc1cccc(OC(F)(F)F)c1 [Example 1.357] | 200 to 750
16 | CCOc1cc(NC(=O)[C@H]2CC=CC[C@@H]2C(=O)O)ccc1S(=O)(=O)Nc1cccc(OC(F)(F)F)c1 [Example 1.358] | ≤ 200
17 | Cc1cc(NC(=O)c2cscn2)ccc1S(=O)(=O)Nc1cccc(C(F)(F)F)c1 [Example 1.359] | 2000 to 20000
18 | COc1cc(NC(=O)C2CC3CCC2O3)ccc1S(=O)(=O)Nc1cccc(OC(F)(F)F)c1 (centres unmarked) [Example 1.360] | 200 to 750
19 | O=C(Nc1ccc(S(=O)(=O)Nc2cccc(OC(F)(F)F)c2)c(OC(F)(F)F)c1)[C@@H](CO)c1ccccc1 [Example 1.361] | ≤ 200
20 | CCOc1cc(NC(=O)[C@@H](CO)C(C)C)ccc1S(=O)(=O)Nc1cccc(Cl)c1OC [Example 1.362] | 750 to 2000
21 | CCOc1cc(NC(=O)[C@@H](O)C(C)C)ccc1S(=O)(=O)Nc1ccc(C)c(C(F)(F)F)c1 [Example 1.363] | ≤ 200
22 | COc1cc(NC(=O)C2CCO[C@@H]2C)ccc1S(=O)(=O)Nc1cccc(OC(F)(F)F)c1 (some centres unmarked) [Example 1.364] | 750 to 2000
23 | Cc1cc(NC(=O)C2CCN(C(=O)OC(C)(C)C)CC2)ccc1S(=O)(=O)Nc1cccc(C(F)(F)F)c1 [Example 1.365] | 2000 to 20000
24 | CCOc1cc(NC(=O)c2ccncc2)ccc1S(=O)(=O)Nc1cccc(OC(F)(F)F)c1 [Example 1.366] | ≤ 200

Row | SMILES | IC50 [nM]
25 | CCOc1cc(NC(=O)[C@@H](NS(C)(=O)=O)C(C)CC)ccc1S(=O)(=O)Nc1cccc(OC(F)(F)F)c1 (some centres unmarked) [Example 1.367] | 2000 to 20000
26 | CCOc1cc(NC(=O)[C@@H](O)C(C)C)ccc1S(=O)(=O)Nc1ccc(C)c(Cl)c1 [Example 1.368] | ≤ 200
27 | COc1cc(NC(=O)[C@@H](O)C(C)C)ccc1S(=O)(=O)Nc1ccc(C)c(C(F)(F)F)c1 [Example 1.369] | 200 to 750
28 | COc1cc(NC(=O)C2CC3C=CC2O3)ccc1S(=O)(=O)Nc1cccc(OC(F)(F)F)c1 (centres unmarked) [Example 1.370] | 750 to 2000
29 | COc1cc(NC(=O)[C@H]2CC[C@@H](OC)CC2)ccc1S(=O)(=O)Nc1cccc(C(F)(F)F)c1 [Example 1.371] | 2000 to 20000
30 | C=Cc1cc(NS(=O)(=O)c2ccc(NC(=O)[C@@H](CO)c3ccccc3)cc2OCC)ccc1C [Example 1.372] | ≤ 200
31 | CCOc1cc(NC(=O)C2CCC(O)C2)ccc1S(=O)(=O)Nc1cccc(OC(F)(F)F)c1 (centres unmarked) [Example 1.373] | 750 to 2000
32 | COc1cc(NC(C)=O)ccc1S(=O)(=O)Nc1cccc(C(F)(F)F)c1 [Example 1.374] | 2000 to 20000
33 | CCOc1cc(NC(=O)[C@@H](O)C(C)C)ccc1S(=O)(=O)Nc1ccc(Cl)c(Cl)c1 [Example 1.375] | ≤ 200
34 | CCOc1cc(NC(=O)C(CO)C2CCC2)ccc1S(=O)(=O)Nc1cccc(OC(F)(F)F)c1 (centres unmarked) [Example 1.376] | ≤ 200
35 | CCOc1cc(NC(=O)C(C(=O)O)C2CCOCC2)ccc1S(=O)(=O)Nc1cccc(OC(F)(F)F)c1 (centres unmarked) [Example 1.377] | ≤ 200
36 | COc1cc(NC(=O)C2CC3C=CC2C3)ccc1S(=O)(=O)Nc1cccc(C(F)(F)F)c1 (centres unmarked) [Example 1.379] | 200 to 750
37 | Cc1cc(NC(=O)c2cccc(F)c2)ccc1S(=O)(=O)Nc1cccc(C(F)(F)F)c1 [Example 1.380] | 200 to 750
38 | Cc1cc(NC(=O)C2CCNCC2)ccc1S(=O)(=O)Nc1cccc(C(F)(F)F)c1 [Example 1.381] | 2000 to 20000
39 | CCc1cc(NC(C)=O)ccc1S(=O)(=O)Nc1cccc(C(F)(F)F)c1 [Example 1.382] | 750 to 2000
40 | CCOc1cc(NC(=O)C(CCO)CC(C)C)ccc1S(=O)(=O)Nc1cccc(OC(F)(F)F)c1 (centres unmarked) [Example 1.383] | ≤ 200
41 | CC(C)c1cc(NC(=O)c2ccnn2C)ccc1S(=O)(=O)Nc1cccc(C(F)(F)F)c1 [Example 1.384] | 200 to 750
42 | CC(=O)Nc1ccc(S(=O)(=O)Nc2cccc(C(F)(F)F)c2)c(F)c1 [Example 1.385] | 2000 to 20000
43 | CCOc1cc(NC(=O)C(CNC(C)=O)c2ccccc2)ccc1S(=O)(=O)Nc1cccc(OC(F)(F)F)c1 (centres unmarked) [Example 1.386] | ≤ 200
44 | CCOc1cc(NC(=O)CC(O)CO)ccc1S(=O)(=O)Nc1cccc(OC(F)(F)F)c1 (centres unmarked) [Example 1.387] | 750 to 2000
45 | CCOc1cc(NC(=O)[C@@H](CO)c2ccccc2)ccc1S(=O)(=O)Nc1ccc(CO)c(C(F)(F)F)c1 [Example 1.388] | 2000 to 20000
46 | CCOc1cc(NC(=O)[C@@H](CO)c2ccccc2)ccc1S(=O)(=O)Nc1ccc(Cl)c(OC(F)(F)F)c1 [Example 1.389] | ≤ 200
47 | CCOc1cc(NC(=O)C(O)[C@@H](C)CC)ccc1S(=O)(=O)Nc1cccc(C(F)(F)F)c1 (some centres unmarked) [Example 1.390] | ≤ 200
48 | CCC(C)[C@H](O)C(=O)Nc1ccc(S(=O)(=O)Nc2cccc(OC(F)(F)F)c2)c(OC)c1 (some centres unmarked) [Example 1.391] | ≤ 200

Row | SMILES | IC50 [nM]
49 | COc1cc(NC(=O)[C@@H]2CCC[C@H]2N)ccc1S(=O)(=O)Nc1cccc(C(F)(F)F)c1 [Example 1.392] | 2000 to 20000
50 | CCOc1cc(NC(=O)[C@@H](N)C2CC2)ccc1S(=O)(=O)Nc1cccc(OC(F)(F)F)c1 [Example 1.393] | ≤ 200
51 | CCOc1cc(NC(=O)C2(c3ccccc3)CC2)ccc1S(=O)(=O)Nc1cccc(OC(F)(F)F)c1 [Example 1.394] | 750 to 2000
52 | O=C(Nc1ccc(S(=O)(=O)Nc2cccc(OC(F)(F)F)c2)c(F)c1)C(CO)c1ccccc1 (centres unmarked) [Example 1.395] | 750 to 2000
53 | CCOc1cc(NC(=O)c2ccn(CC)c(=O)c2)ccc1S(=O)(=O)Nc1cccc(OC(F)(F)F)c1 [Example 1.396] | ≤ 200
54 | COc1cc(NC(=O)c2ccnn2C)ccc1S(=O)(=O)Nc1ccc(Br)c(OC(F)(F)F)c1 [Example 1.397] | ≤ 200
55 | CCOc1cc(NC(=O)[C@@H](O)C(C)C)ccc1S(=O)(=O)Nc1ccc(Cl)cc1 [Example 1.398] | 200 to 750
56 | CCOc1cc(NC(=O)C(OC)c2ccccc2)ccc1S(=O)(=O)Nc1cccc(OC(F)(F)F)c1 (centres unmarked) [Example 1.399] | ≤ 200
57 | Cc1cc(NC(=O)C(CO)C(C)C)ccc1S(=O)(=O)Nc1cccc(OC(F)(F)F)c1 (centres unmarked) [Example 1.400] | 200 to 750
58 | CCOc1cc(NC(=O)CC(O)C2CCOCC2)ccc1S(=O)(=O)Nc1cccc(OC(F)(F)F)c1 (centres unmarked) [Example 1.401] | 200 to 750
59 | CCOc1cc(NC(=O)[C@@H](O)C(C)C)ccc1S(=O)(=O)Nc1ccc(C)c(CC)c1 [Example 1.402] | ≤ 200
60 | CCOc1cc(NC(=O)c2cccnc2)ccc1S(=O)(=O)Nc1cccc(OC(F)(F)F)c1 [Example 1.403] | ≤ 200
61 | CCOc1cc(NC(=O)[C@@H]2CCCCC[C@@H]2O)ccc1S(=O)(=O)Nc1cccc(OC(F)(F)F)c1 [Example 1.404] | ≤ 200
62 | CCOc1cc(NC(=O)[C@@H](CO)c2ccccc2)ccc1S(=O)(=O)Nc1ccc(F)c(C)c1 [Example 1.405] | 200 to 750
63 | CCOc1cc(NC(=O)C(O)C(F)(F)F)ccc1S(=O)(=O)Nc1cccc(OC(F)(F)F)c1 (centres unmarked) [Example 1.406] | ≤ 200
64 | Cc1cc(NC(=O)c2ccc(Cl)cc2)ccc1S(=O)(=O)Nc1cccc(C(F)(F)F)c1 [Example 1.407] | 750 to 2000
65 | CCOc1cc(NC(=O)C(NC)c2ccccc2)ccc1S(=O)(=O)Nc1cccc(OC(F)(F)F)c1 (centres unmarked) [Example 1.408] | ≤ 200
66 | COc1cc(NC(=O)c2ccnn2C)ccc1S(=O)(=O)Nc1ccc(F)c(OC(F)(F)F)c1 [Example 1.409] | ≤ 200
67 | CCOc1cc(NC(=O)[C@H]2CCOC[C@@H]2O)ccc1S(=O)(=O)Nc1cccc(OC(F)(F)F)c1 [Example 1.410] | 200 to 750
68 | CCOc1cc(NC(=O)[C@@H](O)C(C)C)ccc1S(=O)(=O)Nc1ccc(CC)c(C(F)(F)F)c1 [Example 1.411] | ≤ 200
69 | CCOc1cc(NC(=O)[C@H]2CC[C@@H](OC)CC2)ccc1S(=O)(=O)Nc1cccc(OC(F)(F)F)c1 [Example 1.412] | 750 to 2000
70 | CCOc1cc(NC(=O)c2ccc(OC)nc2)ccc1S(=O)(=O)Nc1cccc(OC(F)(F)F)c1 [Example 1.413] | ≤ 200
71 | COc1cc(NC(=O)CC2CC2)ccc1S(=O)(=O)Nc1cccc(C(F)(F)F)c1 [Example 1.414] | 2000 to 20000
